Laboratory results from US12606561B2, “Substituted pyrazolo[1,5-a][1,3,5]triazines as CDK inhibitors” (QURIENT CO., LTD., priority 2018, dated 2026).

Legend:
OVCAR-3 = OVCAR-3 viability assay (CellTiter-Glo, 72 hours); format: cell-based; conditions: Homo sapiens; OVCAR-3 cells
In short: (§1)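 Each line was plated at its own density (1×10^4, 5×10^3 and 1×10^3 cells/well for MV4-11, OVCAR-3 and A2780 respectively) in RPMI-1640 with 10% FBS. Treatment with compound, 0.0015 uM to 10 uM and DMSO under 0.1%, lasted 72 h. Surviving cells were quantified by CellTiter-Glo.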

CDK5/p25 = target: T1, CDK5/p25 (Homo sapiens, UniProt Q00535); assay: Enzymatic assay for CDK5 (LANCE Ultra kinase assay, FRET based); format: biochemical; conditions: ATP at Km
T1 construct: purchased Invitrogen PR8543B
T1 sequence (Q00535 whole entry): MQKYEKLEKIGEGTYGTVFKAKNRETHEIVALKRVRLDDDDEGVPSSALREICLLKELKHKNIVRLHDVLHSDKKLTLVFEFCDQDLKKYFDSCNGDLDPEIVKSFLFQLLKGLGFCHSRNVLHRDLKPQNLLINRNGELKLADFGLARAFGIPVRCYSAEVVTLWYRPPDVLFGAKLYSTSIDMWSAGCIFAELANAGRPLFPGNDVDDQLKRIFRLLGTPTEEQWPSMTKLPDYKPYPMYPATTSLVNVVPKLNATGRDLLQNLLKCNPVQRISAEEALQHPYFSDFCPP
T1 sequence (Q15078 99-307 partner limits assumed): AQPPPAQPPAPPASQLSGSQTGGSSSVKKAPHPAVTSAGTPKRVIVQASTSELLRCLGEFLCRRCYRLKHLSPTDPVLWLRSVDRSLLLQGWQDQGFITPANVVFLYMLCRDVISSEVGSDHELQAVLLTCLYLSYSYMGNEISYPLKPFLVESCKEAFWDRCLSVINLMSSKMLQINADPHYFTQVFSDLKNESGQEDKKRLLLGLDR
In short: (§2)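 Compounds tested as 8 doses in 4-fold steps against CDK2/Cyclin A ([…]) or CDK5/p25 ([…]), with ATP at its Km and 68 nM ULight-MBP substrate. After 60 min at 23° C., EDTA plus Eu-labelled anti-phospho-MBP added; TR-FRET (615/665 nm) read after another 60 min.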

CDK2/Cyclin A = target: T2, CDK2/Cyclin A (Homo sapiens, UniProt P24941); assay: Enzymatic assay for CDK2 (LANCE Ultra kinase assay, FRET based); format: biochemical; conditions: ATP at Km
T2 construct: purchased Invitrogen PV6290
In short: as §2

CDK1/Cyclin B = target: T3, CDK1/Cyclin B (Homo sapiens, UniProt P06493); assay: Enzymatic assay for CDK1 (LANCE Ultra kinase assay, FRET based); format: biochemical; conditions: ATP at Km; read-out: CDK1 enzymatic activity IC50
T3 construct: purchased Invitrogen PR4768C
T3 sequence (P06493 whole entry): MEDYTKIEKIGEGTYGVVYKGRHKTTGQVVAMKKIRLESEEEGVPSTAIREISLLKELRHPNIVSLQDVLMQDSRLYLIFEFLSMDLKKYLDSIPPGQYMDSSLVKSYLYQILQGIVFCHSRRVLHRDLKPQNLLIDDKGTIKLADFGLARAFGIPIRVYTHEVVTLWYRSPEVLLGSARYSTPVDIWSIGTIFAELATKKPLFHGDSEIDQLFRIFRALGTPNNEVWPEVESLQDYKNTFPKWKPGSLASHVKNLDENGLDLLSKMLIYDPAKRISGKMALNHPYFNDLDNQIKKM
T3 sequence (P14635 whole entry partner): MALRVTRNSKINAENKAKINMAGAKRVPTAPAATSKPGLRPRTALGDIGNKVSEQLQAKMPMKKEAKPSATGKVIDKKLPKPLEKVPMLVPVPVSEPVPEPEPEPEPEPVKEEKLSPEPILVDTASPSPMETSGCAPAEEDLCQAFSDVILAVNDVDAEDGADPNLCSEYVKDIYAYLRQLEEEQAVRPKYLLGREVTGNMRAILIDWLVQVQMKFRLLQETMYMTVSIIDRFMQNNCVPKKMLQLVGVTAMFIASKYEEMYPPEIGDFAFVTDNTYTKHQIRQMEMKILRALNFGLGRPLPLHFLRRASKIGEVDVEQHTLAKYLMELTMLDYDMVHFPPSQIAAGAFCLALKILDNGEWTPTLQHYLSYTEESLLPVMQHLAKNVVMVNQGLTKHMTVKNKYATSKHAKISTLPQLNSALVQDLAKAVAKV
In short: (§3)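 Kinase activity of each purified CDK/cyclin complex was followed in a FRET format where a Europium anti-phospho-antibody recognises phosphorylated ULight-labeled peptide. ATP was held at its Km.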

CDK7/Cyclin H/MNAT1 = target: T4, CDK7/Cyclin H/MNAT1 (Homo sapiens, UniProt P50613); assay: Enzymatic assay for CDK7 (LANCE Ultra kinase assay, FRET based); format: biochemical; conditions: for IC50: ATP at Km
T4 construct: purchased Invitrogen PR6749B
T4 sequence (P50613 whole entry): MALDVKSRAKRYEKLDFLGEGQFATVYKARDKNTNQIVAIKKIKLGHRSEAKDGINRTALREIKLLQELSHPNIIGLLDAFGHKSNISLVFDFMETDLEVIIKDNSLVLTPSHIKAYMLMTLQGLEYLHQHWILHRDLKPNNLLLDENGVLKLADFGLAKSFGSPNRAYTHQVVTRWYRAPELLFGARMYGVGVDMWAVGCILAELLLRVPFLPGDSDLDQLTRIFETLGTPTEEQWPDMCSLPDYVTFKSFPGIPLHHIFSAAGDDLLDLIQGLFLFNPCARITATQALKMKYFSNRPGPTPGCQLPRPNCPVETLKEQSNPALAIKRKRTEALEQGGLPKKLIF
T4 sequence (P51946 whole entry partner): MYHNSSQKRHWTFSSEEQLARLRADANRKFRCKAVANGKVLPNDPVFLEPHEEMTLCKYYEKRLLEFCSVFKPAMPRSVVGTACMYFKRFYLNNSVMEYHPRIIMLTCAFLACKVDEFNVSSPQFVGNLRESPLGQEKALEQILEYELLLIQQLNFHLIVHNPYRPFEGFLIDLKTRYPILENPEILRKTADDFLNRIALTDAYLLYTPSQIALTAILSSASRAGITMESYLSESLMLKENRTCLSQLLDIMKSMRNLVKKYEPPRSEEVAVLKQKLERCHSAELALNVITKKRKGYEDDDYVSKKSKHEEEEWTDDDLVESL
T4 sequence (P51948 whole entry partner): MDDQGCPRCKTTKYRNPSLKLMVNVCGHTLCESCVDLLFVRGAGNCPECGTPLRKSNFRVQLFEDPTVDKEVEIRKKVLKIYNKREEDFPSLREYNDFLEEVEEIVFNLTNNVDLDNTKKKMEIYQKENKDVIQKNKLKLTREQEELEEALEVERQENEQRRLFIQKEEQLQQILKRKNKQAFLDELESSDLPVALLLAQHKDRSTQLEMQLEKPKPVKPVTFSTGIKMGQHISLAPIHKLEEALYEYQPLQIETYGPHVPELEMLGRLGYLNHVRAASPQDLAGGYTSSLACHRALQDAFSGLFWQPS
In short: as §3

A2780 = A2780 viability assay (CellTiter-Glo, 72 hours); format: cell-based; conditions: Homo sapiens; A2780 cells
In short: as §1

MV4-11 = assay: Cellular MV4-11 viability assay (CellTiter-Glo, 72 hours); format: cell-based; conditions: Homo sapiens; MV4-11 cells
Protocol: Human […] cell line, MV4-11_(ATCC, Cat #CRL-9591), NSCLC (Non-small cell lung cancer) cell line H460 (ATCC, Cat #HTB-177), A2780 (ECACC, Cat #93112519) and OVCAR-3(ATCC, Cat #HTB-161) were obtained from ATCC. Cells were grown in RPMI-1640 media (Invitrogen, Cat #22400-089) supplemented with 10% FBS (Invitrogen, Cat #10099141) and 1% penicillin/streptomycin (Invitrogen, Cat #15070063) and cultured at 37° C., 5% CO2 in a humidified chamber. All cell lines were routinely tested for mycoplasma.
To effect of the CDK7 inhibitor to inhibit the growth of target cancer cells, viability assay were conducted a 72 hour time period. Briefly, the candidate cell line was plated in 96 well plate at the following density of cells respectively. 1×10^4 cells/well for MV4-11, 5×10^3 for H460 and OVCAR-3, and 1×10^3 for A2780. After 24 hours, the cells were treated with various concentrations of the compound (ranging from 0.0015 uM to 10 uM). DMSO solvent without compound served as a control and final DMSO concentration lest than 0.1%. After 72 hours of incubation at 37° C., 5% CO2 incubator, cells were analyzed for the viability using the CellTiter-Glo Luminescent Cell Viability Assay (Promega, Cat #G7570). All viability assays were performed in duplicate and Luminescence was read using an Envision (Perkin Elmer, USA). Data was analyzed using XLfit software.

IC50 (OVCAR-3) [µM]	IC50 (CDK5/p25) [µM]	IC50 (CDK2/Cyclin A) [µM]	IC50 (CDK1/Cyclin B) [µM]	IC50 (CDK7/Cyclin H/MNAT1) [µM]	CDK1/CDK7: Selectivity of CDK7 inhibition over CDK1 inhibition (CDK7/Cyclin H/MNAT1)	CDK2/CDK7: Selectivity of CDK7 inhibition over CDK2 inhibition (CDK7/Cyclin H/MNAT1)	CDK5/CDK7: Selectivity of CDK7 inhibition over CDK5 inhibition (CDK7/Cyclin H/MNAT1)	IC50 (A2780) [µM]	IC50 (MV4-11) [µM]	Structure (SMILES)
< 1	> 1	> 1	> 1	< 0.1	A (A indicates [fold] > 500)	A (A indicates [fold] > 500)	A (A indicates [fold] > 500)	< 1	< 1	CC(C)c1cnn2c(NCc3ccccc3-c3nccc4cc(NC(=O)/C=C/CN5CCOCC5)ccc34)nc(N3CCC(N)CC3)nc12 [Compound 53]
< 1	> 1	> 1	> 1	< 0.1	A (A indicates [fold] > 500)	A (A indicates [fold] > 500)	A (A indicates [fold] > 500)	< 1	< 1	COC/C=C/C(=O)Nc1ccc2c(-c3ccccc3CNc3nc(N4CCC(N)CC4)nc4c(C(C)C)cnn34)nccc2c1 [Compound 54]
< 1	> 1	> 1	> 1	< 0.1	A (A indicates [fold] > 500)	A (A indicates [fold] > 500)	B (B indicates 50 < [fold] ≤ 500)	< 1	< 1	CC(C)c1cnn2c(NCc3ccccc3-c3ccnc4cc(NC(=O)/C=C/CN(C)C)ccc34)nc(N3CCC(N)CC3)nc12 [Compound 55]
< 1	> 1	> 1	> 1	< 0.1	A (A indicates [fold] > 500)	A (A indicates [fold] > 500)	A (A indicates [fold] > 500)	< 1	< 1	Cc1cccc(-c2ccc3cccc(NC(=O)/C=C/CN(C)C)c3n2)c1CNc1nc(N2CCC(N)CC2)nc2c(C(C)C)cnn12 [Compound 56]
< 1	> 1	> 1	> 1	< 0.1	A (A indicates [fold] > 500)	A (A indicates [fold] > 500)	A (A indicates [fold] > 500)	< 1	< 1	CC(C)c1cnn2c(NCc3ccccc3-c3nccc4cc(NC(=O)/C=C/CN5CCCC5)ccc34)nc(N3CCC(N)CC3)nc12 [Compound 57]
1 to 10	> 1	> 1	> 1	< 0.1	A (A indicates [fold] > 500)	A (A indicates [fold] > 500)	A (A indicates [fold] > 500)	1 to 10	< 1	CC(C)c1cnn2c(NCc3ccccc3-c3nccc4cc(NC(=O)/C=C/CN(C)CC(N)=O)ccc34)nc(N3CCC(N)CC3)nc12 [Compound 58]
< 1	> 1	> 1	> 1	< 0.1	A (A indicates [fold] > 500)	A (A indicates [fold] > 500)	A (A indicates [fold] > 500)	< 1	< 1	CC(C)c1cnn2c(NCc3ccccc3-c3nccc4cc(NC(=O)/C=C/CN(C)C)ccc34)nc(N3CCNCC3)nc12 [Compound 59]
< 1	> 1	> 1	> 1	< 0.1	A (A indicates [fold] > 500)	A (A indicates [fold] > 500)	A (A indicates [fold] > 500)	< 1	< 1	C=CC(=O)Nc1ccc2c(-c3ccccc3CNc3nc(NC[C@H]4CCNC[C@@H]4O)nc4c(C(C)C)cnn34)nccc2c1 [Compound 60]
< 1	> 1	> 1	> 1	< 0.1	A (A indicates [fold] > 500)	A (A indicates [fold] > 500)	A (A indicates [fold] > 500)	< 1	< 1	COC1CCN(c2nc(NCc3ccccc3-c3nccc4cc(NC(=O)/C=C/CN(C)C)ccc34)n3ncc(C(C)C)c3n2)CC1 [Compound 61]
1 to 10	> 1	> 1	> 1	< 0.1	A (A indicates [fold] > 500)	A (A indicates [fold] > 500)	A (A indicates [fold] > 500)	1 to 10	< 1	CC(C)c1cnn2c(NCc3ccccc3-c3nccc4cc(NC(=O)/C=C/CN(C)C)ccc34)nc(NC3CCNCC3)nc12 [Compound 63]
< 1	> 1	> 1	> 1	< 0.1	A (A indicates [fold] > 500)	A (A indicates [fold] > 500)	A (A indicates [fold] > 500)	< 1	< 1	C=C(F)C(=O)Nc1ccc2c(-c3ccccc3CNc3nc(NC[C@H]4CCNC[C@@H]4O)nc4c(C(C)C)cnn34)nccc2c1 [Compound 64]
< 1	> 1	> 1	> 1	< 0.1	A (A indicates [fold] > 500)	A (A indicates [fold] > 500)	A (A indicates [fold] > 500)	< 1	< 1	CC(C)c1cnn2c(NCc3ccccc3-c3nccc4cc(NC(=O)C5=CCCC5)ccc34)nc(NC[C@H]3CCNC[C@@H]3O)nc12 [Compound 65]
< 1	> 1	> 1	> 1	< 0.1	A (A indicates [fold] > 500)	A (A indicates [fold] > 500)	A (A indicates [fold] > 500)	< 1	< 1	C=C(C)C(=O)Nc1ccc2c(-c3ccccc3CNc3nc(NC[C@H]4CCNC[C@@H]4O)nc4c(C(C)C)cnn34)nccc2c1 [Compound 66]
< 1	> 1	> 1	> 1	< 0.1	A (A indicates [fold] > 500)	A (A indicates [fold] > 500)	A (A indicates [fold] > 500)	< 1	< 1	C=CC(=O)Nc1cccc2ccc(-c3cccc(C)c3CNc3nc(NC[C@H]4CCNC[C@@H]4O)nc4c(C(C)C)cnn34)nc12 [Compound 67]
